Experimental data taken from patent US4100276A, “Fusidic acid derivatives” (priority 1975, dated 1978).
≈ marks a conversion by molar mass, not a printed value. Structures can show the parent of a compound that is named as a salt. Where two headings read alike, the source gives them in different places.

Tests used:
[1] = system: Streptococcus sp. Leo EG2; test: In vitro activity, concentration required for 50% inhibition (Table A); assay type: cell-based
[2] = system: Staph. aureus, Leo CC178H2 (fusidic acid resistant strain); test: as above; assay type: cell-based; details: Staphylococcus aureus, read-out: Concentration required for 50% inhibition (IC50)
[3] = system: Streptococcus pyogenes Leo EC; test: as above; assay type: cell-based
[4] = system: Staphylococcus aureus Leo CC178B; test: as above; assay type: cell-based; details: for IC50: LEOCC178B, read-out: Concentration required for 50% inhibition (IC50)
[5] = system: Bacteroides fragilis, Leo JA2; test: as above; assay type: cell-based
Staph. aureus Leo CJ145 = test: as above; assay type: cell-based; details: for IC50: Staphylococcus aureus
Corynebact. acnes Leo FN = test: as above; assay type: cell-based, Corynebacterium acnes; details: for IC50: Cutibacterium acnes
[6] = system: fusidic acid resistant variant of Staph. aureus (Leo CC 178A); test: In vitro activity before and after a number of transfers (Example 48, Table C); assay type: cell-based; details: for IC50: Staphylococcus aureus
Description: (§1) In vitro activity of 3α,11α-dihydroxy-16β-ethylthiofusida-13(17),24-dien-21-oic acid against Staph. aureus before and after a number of transfers.
(§2) Serial dilutions of the compound above were made in liquid NIH-medium and then heavily inoculated with either a fusidic acid sensitive strain of Staph. aureus (Leo CC 178B) or with a fusidic acid resistant variant of the same strain (Leo CC 178A).
(§3) After every 72 to 96 hours transfers were made from the tubes containing the largest amount of the test compound showing full growth.

[7] = system: fusidic acid sensitive strain of Staph. aureus (Leo CC 178B); test: as above; assay type: cell-based; details: for IC50: Staphylococcus aureus, Leo CC 178B (fusidic acid sensitive), overnight incubation
Description: as §1, §2, §3

Staphylococcus aureus = test: In vitro effect of combination with dihydro-fusidic acid, viable counts (Example 46); assay type: cell-based; details: tubes a, b 10 μg/ml, tube c 5 + 5 μg/ml
Description: In vitro-effect of the combination of dihydro-fusidic acid and 3α,11α-dihydroxy-16β-phenylthio-fusida-13(17),24-dien-21- oic acid
To three tubes containing NIH broth was added:
a. The sodium salt of dihydro-fusidic acid (10 μg/ml).
b. The sodium salt of 3α,11α-dihydroxy-16-phenylthiofusida-13(17),24-dien-21-oic acid (10 μg/ml).
c. A mixture of the sodium salts of dihydro-fusidic acid (5 μg/ml) and 3α,11α-dihydroxy-16-phenylthiofusida-13(17),24-dien-21-oic acid (5 μg/ml).
The tubes were inoculated with Staphylococcus aureus to give 5.2 × 10^5 organisms per ml, incubated at 37° C for 96 hours, and the viable counts were determined.
A fourth tube was treated similarly without addition of any of the antibiotics and used as a control: […]

[8] = Streptococcus sp. Leo EG2, read-out: Concentration required for 50% inhibition (IC50)
[9] = Streptococcus pyogenes Leo EC, read-out: Concentration required for 50% inhibition (IC50)
[10] = Staphylococcus aureus Leo CC178B
[11] = LEOJA2, Bacteroides fragilis Leo JA2, read-out: Concentration required for 50% inhibition (IC50)
[12] = LEOCJ145, Staph. aureus Leo CJ145, read-out: Concentration required for 50% inhibition (IC50)
[13] = Corynebact. acnes Leo FN, read-out: Concentration required for 50% inhibition (IC50)
[14] = read-out: IC50 after 1st transfer
[15] = read-out: IC50 after 2nd transfer
[16] = read-out: IC50 after 3rd transfer
[17] = read-out: IC50 after 4th transfer
[18] = read-out: IC50 after 5th transfer
[19] = read-out: IC50 after 6th transfer
[20] = Streptococcus, read-out: Concentration required for 50% inhibition (IC50), Streptococcus sp. Leo EG2
[21] = Streptococcus pyogenes, read-out: Concentration required for 50% inhibition (IC50), Streptococcus pyogenes Leo EC
[22] = Bacteroides fragilis, LEOJA2, read-out: Concentration required for 50% inhibition (IC50), Bacteroides fragilis Leo JA2

CC(C)=CCCC(C(=O)O)C1=C2C[C@@H](O)[C@H]3[C@@]4(C)CC[C@@H](O)[C@@H](C)[C@@H]4CC[C@]3(C)[C@@]2(C)C[C@@H]1Sc1ccc(Br)cc1 (stereo partly drawn) [Example 2, 3α,11α-dihydroxy-16β--(4'-bromophenylthio)fusida-13(17),24-dien-21-oic acid sodium salt]
IC50 [1, 8]: 0.5 µg/mL | IC50 [2]: 10 µg/mL | IC50 [3, 9]: 0.2 µg/mL | IC50 [4, 10]: 6.3 µg/mL | IC50 [5, 11]: 13 µg/mL | IC50 (Staph. aureus Leo CJ145; [12]): 100 µg/mL | IC50 (Corynebact. acnes Leo FN; [13]): 0.63 µg/mL

CC(C)CCCC(C(=O)O)C1=C2C[C@@H](O)[C@H]3[C@@]4(C)CC[C@@H](O)[C@@H](C)[C@@H]4CC[C@]3(C)[C@@]2(C)C[C@@H]1Sc1ccccc1 (stereo partly drawn) [Example 8, 3α,11α-Dihydroxy-16β-phenylthiofusida-13(17)-en-21-oic acid, sodium salt]
IC50 [1, 8]: 0.5 µg/mL | IC50 [2]: 2.5 µg/mL | IC50 [3, 9]: 0.5 µg/mL | IC50 [4, 10]: 2 µg/mL | IC50 [5, 11]: > 100 µg/mL | IC50 (Corynebact. acnes Leo FN; [13]): 1.6 µg/mL

CCS[C@H]1C[C@@]2(C)C(=C1C(CCC=C(C)C)C(=O)O)C[C@@H](O)[C@H]1[C@@]3(C)CC[C@@H](O)[C@@H](C)[C@@H]3CC[C@@]12C (stereo partly drawn) [Example 11, 3α,11α-dihydroxy-16β-ethylthiofusida-13(17),24-dien-21-oic acid sodium salt]
IC50 ([1]; Streptococcus, read-out: Concentration required for 50% inhibition (IC50)): 1.6 µg/mL | IC50 [2]: 3.2 µg/mL | IC50 ([3]; Streptococcus pyogenes, read-out: Concentration required for 50% inhibition (IC50)): 1.6 µg/mL | IC50 ([4]; Staphylococcus aureus): 2.7 µg/mL | IC50 [6, 14]: 2.3 µg/mL | IC50 [6, 15]: 3.8 µg/mL | IC50 [6, 16]: 4.3 µg/mL | IC50 [6, 17]: 4.2 µg/mL | IC50 [6, 18]: 4 µg/mL | IC50 [6, 19]: 4 µg/mL | IC50 ([6]; read-out: IC50 before transfer): 2.7 µg/mL | Change in sensitivity after transfers ([6]; fusidic acid resistant strain): hardly shows any change in sensitivity | IC50 [7, 14]: 2 µg/mL | IC50 [7, 15]: 7.4 µg/mL | IC50 [7, 16]: 7.4 µg/mL | IC50 [7, 17]: 13.5 µg/mL | IC50 [7, 18]: 10 µg/mL | IC50 [7, 19]: 32 µg/mL | IC50 ([7]; read-out: IC50 before transfer): 2.7 µg/mL | Decrease of sensitivity after the 6th transfer ([7]; fusidic acid sensitive strain): 12 fold | IC50 ([5]; Bacteroides fragilis, LEOJA2, read-out: Concentration required for 50% inhibition (IC50)): 2 µg/mL | IC50 (Staph. aureus Leo CJ145; LEOCJ145, read-out: Concentration required for 50% inhibition (IC50)): 3.2 µg/mL | IC50 (Corynebact. acnes Leo FN; read-out: Concentration required for 50% inhibition (IC50)): 2 µg/mL

CC(C)=CCCC(C(=O)O)C1=C2C[C@@H](O)[C@H]3[C@@]4(C)CC[C@@H](O)[C@@H](C)[C@@H]4CC[C@]3(C)[C@@]2(C)C[C@@H]1SC(C)(C)C (stereo partly shown) [Example 13]
IC50 [1, 8]: 1.6 µg/mL (≈ 2.93 µM) | IC50 [2]: 1.6 µg/mL (≈ 2.93 µM) | IC50 [3, 9]: 0.63 µg/mL (≈ 1.15 µM) | IC50 [4, 10]: 1.6 µg/mL (≈ 2.93 µM) | IC50 [5, 11]: 2 µg/mL (≈ 3.66 µM) | IC50 (Staph. aureus Leo CJ145; [12]): 7.9 µg/mL (≈ 14.4 µM) | IC50 (Corynebact. acnes Leo FN; [13]): 0.5 µg/mL (≈ 0.914 µM)

C=CCS[C@H]1C[C@@]2(C)C(=C1C(CCC=C(C)C)C(=O)O)C[C@@H](O)[C@H]1[C@@]3(C)CC[C@@H](O)[C@@H](C)[C@@H]3CC[C@@]12C (stereo partly shown) [Example 14]
IC50 [1, 8]: 1.6 µg/mL (≈ 3.01 µM) | IC50 [2]: 1.6 µg/mL (≈ 3.01 µM) | IC50 [3, 9]: 0.32 µg/mL (≈ 0.603 µM) | IC50 [4, 10]: 1.6 µg/mL (≈ 3.01 µM) | IC50 [5, 11]: 4 µg/mL (≈ 7.54 µM) | IC50 (Staph. aureus Leo CJ145; [12]): 5 µg/mL (≈ 9.42 µM) | IC50 (Corynebact. acnes Leo FN; [13]): 1.6 µg/mL (≈ 3.01 µM)

CC(C)=CCCC(C(=O)O)C1=C2C[C@@H](O)[C@H]3[C@@]4(C)CC[C@@H](O)[C@@H](C)[C@@H]4CC[C@]3(C)[C@@]2(C)C[C@@H]1SCc1ccco1 (stereo partly shown) [Example 23]
IC50 [1, 8]: 1.6 µg/mL (≈ 2.8 µM) | IC50 [2]: 1.6 µg/mL (≈ 2.8 µM) | IC50 [3, 9]: 0.63 µg/mL (≈ 1.1 µM) | IC50 [4, 10]: 1.6 µg/mL (≈ 2.8 µM) | IC50 [5, 11]: 16 µg/mL (≈ 28 µM) | IC50 (Staph. aureus Leo CJ145; [12]): 7.9 µg/mL (≈ 13.8 µM) | IC50 (Corynebact. acnes Leo FN; [13]): 0.79 µg/mL (≈ 1.38 µM)

CC(C)CCCC(C(=O)O)C1=C2C[C@@H](O)[C@H]3[C@@]4(C)CC[C@@H](O)[C@@H](C)[C@@H]4CC[C@]3(C)[C@@]2(C)C[C@@H]1SC(C)C (stereo partly drawn) [Example 26, 3α,11α-Dihydroxy-16β-isopropylthiofusida-13(17)-en-21-oic acid sodium salt]
IC50 [1, 20]: 0.5 µg/mL | IC50 [2]: 1.6 µg/mL | IC50 [3, 21]: 0.5 µg/mL | IC50 ([4]; Staphylococcus aureus): 1.6 µg/mL | IC50 [5, 22]: 20 µg/mL | IC50 (Corynebact. acnes Leo FN; read-out: Concentration required for 50% inhibition (IC50), Corynebact. acnes Leo FN): 0.5 µg/mL

CC(C)=CCCC(C(=O)O)C1=C2C[C@@H](O)[C@H]3[C@@]4(C)CC[C@@H](O)[C@@H](C)[C@@H]4CC[C@]3(C)[C@@]2(C)C[C@@H]1SC(C)C (stereo partly drawn) [Example 27, 3α,11α-Dihydroxy-16β-isopropylthiofusida-13(17), 24-dien-21-oic acid]
IC50 [1, 20]: 1 µg/mL (≈ 1.88 µM) | IC50 [2]: 1.6 µg/mL (≈ 3 µM) | IC50 [3, 21]: 0.63 µg/mL (≈ 1.18 µM) | IC50 ([4]; Staphylococcus aureus): 1.6 µg/mL (≈ 3 µM) | IC50 [5, 22]: 10 µg/mL (≈ 18.8 µM) | IC50 (Staph. aureus Leo CJ145; LEOCJ145, read-out: Concentration required for 50% inhibition (IC50), Staph. aureus Leo CJ145): 4 µg/mL (≈ 7.51 µM) | Concentration required for 50% inhibition (IC50) (Corynebact. acnes Leo FN; Corynebact. acnes Leo FN): 0.63 µg/mL

CC(C)=CCCC(C(=O)O)C1=C2C[C@@H](O)[C@H]3[C@@]4(C)CC[C@@H](O)[C@@H](C)[C@@H]4CC[C@]3(C)[C@@]2(C)C[C@@H]1SC(C)C (stereo partly drawn) [Example 31C, 3α,11α-dihydroxy-16β-isopropylthiofusida-13(17),24-dien-21-oic acid]
Concentration required for 50% inhibition (IC50) ([1]; Streptococcus sp. Leo EG2): 0.63 µg/mL | Concentration required for 50% inhibition (IC50) ([3]; Streptococcus pyogenes Leo EC): 0.5 µg/mL | Concentration required for 50% inhibition (IC50) [4, 10]: 1.6 µg/mL | Concentration required for 50% inhibition (IC50) ([5]; Bacteroides fragilis Leo JA2): 6.3 µg/mL | Concentration required for 50% inhibition (IC50) (Staph. aureus Leo CJ145; Staph. aureus Leo CJ145): 4.0 µg/mL | Concentration required for 50% inhibition (IC50) (Corynebact. acnes Leo FN; Corynebact. acnes Leo FN): 0.63 µg/mL

CC(C)=CCCC(C(=O)O)C1=C2C[C@@H](O)[C@H]3[C@@]4(C)CC[C@@H](O)[C@@H](C)[C@@H]4CC[C@]3(C)[C@@]2(C)C[C@@H]1SC(C)C (stereo partly drawn) [Example 31D, 3α,11α-dihydroxy-16β-isopropylthiofusida-13(17),24-dien-21-oic acid]
Concentration required for 50% inhibition (IC50) ([1]; Streptococcus sp. Leo EG2): 0.79 µg/mL | Concentration required for 50% inhibition (IC50) ([3]; Streptococcus pyogenes Leo EC): 0.63 µg/mL | Concentration required for 50% inhibition (IC50) [4, 10]: 1.6 µg/mL | Concentration required for 50% inhibition (IC50) (Staph. aureus Leo CJ145; Staph. aureus Leo CJ145): 5.0 µg/mL | Concentration required for 50% inhibition (IC50) (Corynebact. acnes Leo FN; Corynebact. acnes Leo FN): 1.6 µg/mL

CC(=O)O[C@H]1C[C@@]2(C)[C@@H](C[C@@H](O)[C@H]3[C@@]4(C)CC[C@@H](O)[C@@H](C)[C@@H]4CC[C@@]32C)/C1=C(\CCCC(C)C)C(=O)O [sodium salt of dihydro-fusidic acid, reference compound]
Viable counts after 6 1/2 hours (Staphylococcus aureus; 37° C, inoculum 5.2 × 10^5): 3.1 × 10^5 organisms per ml | Viable counts after 2 hours (Staphylococcus aureus; 37° C, inoculum 5.2 × 10^5): 4.1 × 10^5 organisms per ml | Viable counts after 24 hours (Staphylococcus aureus; 37° C, inoculum 5.2 × 10^5): 6.3 × 10^6 organisms per ml | Resistance of surviving organisms to the compound / development of resistance (Staphylococcus aureus; 96 hours): resistant to dihydro-fusidic acid
